One series addresses T1, Plasmepsin V (PmV) (Plasmodium falciparum, UniProt Q8I6Z5).
T1 construct: PmV was purified directly from parasites; made in house
The series can be described thus: PmV inhibition, fluorimetric PExEl cleavage assay. It is filed as biochemical. The conditions noted are these: for pIC50: read-out: IC50. As for the experimental part: Saponin was added to culture to a final 0.05%; parasites were recovered via centrifugation at 4°C after 5 min of incubation on ice; parasite pellets were then washed twice in cold PBS and either immediately lysed or stored at -80°C until lysis. Parasites were lysed via three pulses of ultra-sonication of 10 sec duration, in PBS containing 0.5% Triton-X100 (TX-100). […] Quick washes of the resin were performed either in batches, or over columns, to remove unbound cellular material (four with ice-cold 0.5% TX-100 in PBS and a final one with cold PBS). Resin-bound PmV was stored in PBS at 4°C and used within 2–3 weeks, larger batches had Glycerol added to them, up to 10%, and were stored at -20°C for up to 5 months. […] Quality and purity of PmV batches were routinely confirmed by protein electrophoresis. Quantification of PmV was performed via densitometry analysis of stained protein SDS-PAGE gels relative to BSA standard curves.
PExEl cleavage activity was monitored by fluorimetric measurement of PExEl cleavage, as previously reported. […] PmV activity was performed at 37°C in 50 mM Tris-Maleate, pH 6.5, 50 mM NaCl, 0.05% TX-100, 2 mM DTT. Assays were routinely conducted in triplicate. Bead-bound enzyme was added to the reaction using ‘end-cut’ micropipette tips in order to facilitate sampling the suspension.
Inhibitory activities were measured in the presence of a substrate concentration of 3 μM by serial dilution of each compound in triplicates. […] Titration curves of the inhibitors were routinely composed of eleven points from 10 μM to 0.1 pM. PmV concentration was kept in the order of low picomolar (≤10 pM). […] Analysis of the half inhibitory activity (IC50) was performed by sigmoidal interpolation of the starting velocities of the hydrolytic reactions for each condition. Starting velocities were calculated on the initial linear range of the product progression curves. […] Data are presented with error bars indicating the standard deviation of three independent activity curves.

Series [1] deals with clone #3 (Overexpressing PmV). The series can be described thus: Parasite growth inhibition, clone #3 (overexpressing PmV-GFP).
Procedure: (§1) Growth impairment of parasites in culture was tested as follows. Asynchronous erythrocyte cultures of Plasmodium falciparum strain 3D7 were initiated at a starting parasitemia of 0.2–0.5% in the presence of titration curves of the PmV inhibitors generated in this work. […] Cultures, live or fixed, were analyzed at day 3 and/or 4 after initiation, approximately~ 2 cell cycles of 3D7 strain. Parasitemia was measured by flow cytometry analysis of parasitized cells stained with 0.4 μg/ml Acridine Orange or 1 μM Topro 3 (Life Technology Invitrogen), using BD Fortessa or FACS Calibur instruments.
(§2) DC6 clone expresses PmV-GFP chimera under regulation of the native promoter [15]; G6 clone, the PmV-GFP-DD chimera under regulation of the native promoter (this paper) and #3 clone (episomally expressing PmV-GFP chimera under Hsp86-5', a strong and constitutive promoter) [15]. […] (B) Growth inhibition curves of parasites expressing different levels of PmV: 3D7 (blue dots and line), DC6 (green dots and line), G6 (PmV knock-down) (red dots and line) and #3 (Overexpressing PmV) (purple dots and line) were analysed in parallel. Growth inhibition was measured in triplicates. Dots represent actual data, lines the sigmoidal fitting obtained by non-linear regression analysis. […] Error bars show the standard deviation of the data.
For series [2] the following is noted: pH 7.4.
Series [3] deals with HRPII-GFP PExEl-dependent secretion. The series can be described thus: In vivo inhibition of PExEl export, live microscopy of HRPII-GFP clone. Type of series: cell-based, Plasmodium falciparum. The following applies: 20 μM, 27 h, ring to trophozoite stages. On the procedure:
Parasites were imaged live or fixed. Fixation in 4% formaldehyde and 0.0075% glutaraldehyde, cell permeabilization, antibody incubation, and mounting were as previously described. Before imaging of HRPII-GFP clone, we treated with Compound 29 highly synchronized parasites at late trophozoite stage with inhibitors for 27 h, and then analyzed the distribution of the exported probe in newly invaded red blood cells. Images were acquired using a fluorescence microscope (BX51 Olympus). Live parasites were counter-stained using the nuclear dye Hoechst 33342 (Life Technologies—Molecular Probes).
Fig 16 Inhibition results in impairment of the PExEl secretion. (A) Microscopy analysis of the distribution of the PExEl-export fluorescent probe. Live parasites expressing HRPII-GFP, used as a probe for PExEl secretion, are imaged in the presence of Hoechst nuclear staining. Bright field (grey scale), nuclei (blue channel), HRPII-GFP (green) and the merged image of the fluorescent channels are presented from left to right. (panel a) untreated culture; (b) mock DMSO-treated culture; (c-f) culture treated with 20 μM 29 solubilized in DMSO (c) mid ring, (d) late-ring, (e) early-trophozoite, (f) late-trophozoite. Bar is 2 μm. […]

The test system of series [4] is Plasmodium falciparum strain 3D7. The series can be described thus: Parasite growth inhibition by flow cytometry, strain 3D7. It is filed as cell-based. The following applies: for LD50 growth inhibition: asynchronous 3D7 cultures, about 4 days, 0.195–200 μM, flow cytometry. For orientation: Flow cytometry measures light scatter and fluorescence of single cells or particles in a stream.

The test system of series [5] is clone G6 (PmV knock-down). The series can be described thus: Parasite growth inhibition, clone G6 (PmV-GFP-DD, PmV knock-down). The conditions noted are these: clone G6, absence of Shield-1.
Procedure: as §1
(B) Growth inhibition curves of parasites expressing different levels of PmV: 3D7 (blue dots and line), DC6 (green dots and line), G6 (PmV knock-down) (red dots and line) and #3 (Overexpressing PmV) (purple dots and line) were analysed in parallel. Growth inhibition was measured in triplicates. Dots represent actual data, lines the sigmoidal fitting obtained by non-linear regression analysis. […] Error bars show the standard deviation of the data.
In the next series the test system is clone DC6. The series can be described thus: Parasite growth inhibition, clone DC6 (PmV-GFP, native promoter).
The next series relates to HRPII PExEl processing. The series can be described thus: HRPII PExEl processing, western blot. Type of series: cell-based, Plasmodium falciparum. The following applies: 20 μM, about 27 h, 3D7. As for the experimental part:
Protein analyses to detect PmV, HRPII and BiP via stained protein gels and blots, densitometry, antibody detection or HRP-conjugated Streptavidin, were conducted as previously described.
Fig 16 Inhibition results in impairment of the PExEl secretion. (A) Microscopy analysis of the distribution of the PExEl-export fluorescent probe. Live parasites expressing HRPII-GFP, used as a probe for PExEl secretion, are imaged in the presence of Hoechst nuclear staining. Bright field (grey scale), nuclei (blue channel), HRPII-GFP (green) and the merged image of the fluorescent channels are presented from left to right. (panel a) untreated culture; (b) mock DMSO-treated culture; (c-f) culture treated with 20 μM 29 solubilized in DMSO (c) mid ring, (d) late-ring, (e) early-trophozoite, (f) late-trophozoite. Bar is 2 μm. Impairment of HRPII-GFP PExEl-dependent export is observed in these representative images of live parasites and the GFP signal appears concentrated in regions of immediate proximity to the nuclei. […] (B) HRPII PExEl processing is inhibited by Compound 29. Western blot analysis of HRPII contained in parasites after saponin treatment. Arrows show the pro-form (p) and the mature (m) protein HRPII. 3D7 culture was incubated as described in Materials and Methods with 20 μM Compound 29 for about 27 h.

For another series, the target named is T2, PmV-GFP (Plasmodium falciparum, UniProt Q8I6Z5).
T2 construct: parasite cellular lysates of DC6 a clone that constitutively expresses PmV-GFP; expressed in transfected cells; host or cells: Plasmodium falciparum clone DC6 (3D7-derived; PmV-GFP under the native PmV promoter), crude lysate
T2 sequence (Q8I6Z5 whole entry): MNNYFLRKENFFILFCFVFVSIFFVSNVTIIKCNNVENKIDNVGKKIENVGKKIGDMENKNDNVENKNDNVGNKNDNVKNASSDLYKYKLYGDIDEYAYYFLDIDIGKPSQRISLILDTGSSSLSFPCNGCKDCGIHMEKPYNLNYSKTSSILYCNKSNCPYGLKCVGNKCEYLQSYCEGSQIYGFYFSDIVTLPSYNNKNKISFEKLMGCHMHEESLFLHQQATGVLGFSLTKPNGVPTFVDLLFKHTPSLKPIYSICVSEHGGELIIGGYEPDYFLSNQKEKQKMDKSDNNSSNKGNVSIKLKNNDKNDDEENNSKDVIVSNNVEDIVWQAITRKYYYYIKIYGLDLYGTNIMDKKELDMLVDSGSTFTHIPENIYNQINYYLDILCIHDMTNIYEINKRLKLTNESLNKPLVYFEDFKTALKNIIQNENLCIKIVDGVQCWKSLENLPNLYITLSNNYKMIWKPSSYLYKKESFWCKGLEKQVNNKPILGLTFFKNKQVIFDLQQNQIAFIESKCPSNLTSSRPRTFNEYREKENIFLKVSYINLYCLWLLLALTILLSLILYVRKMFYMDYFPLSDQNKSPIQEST
The series can be described thus: Pull-down / co-precipitation of PmV-inhibitor complexes from DC6 lysates. Type of series: binding. As for the experimental part: Pull-down experiments were performed using parasite cellular lysates of DC6 a clone that constitutively expresses PmV-GFP [15]. […] [i] […] An anti-GFP antibody, 3E6, was added with protein A-agarose as above described and incubated 1 h at 4°C, with gentle agitation. The resin was washed 3 times with cold PBS and then boiled in Laemmli sample buffer for later biotin detection in a dot-blot format. [ii] […] Incubation was carried out for 1 h at 4°C gently maintaining the beads in suspension. Then the resin was washed 3 times with cold PBS and boiled in Laemmli sample buffer for subsequent protein western blot analysis of the pull-down material.

The test system of the next series is PmV. The conditions noted are these: different substrate at […], different buffer; ref [19], [20]; read-out: IC50, published value; cited from earlier work.
Setting [6] is: 3 μM HRPII-PExEl substrate, averages of not less than three inhibition curves.

We go through four molecules from PMC4643876, “Picomolar Inhibition of Plasmepsin V, an Essential Malaria Protease, Achieved Exploiting the Prime Region” (PLoS ONE, 2015).

What is called pKi is −log10 of the Ki, conventionally taken in molar units. In general, pIC50 refers to the IC50 on a negative log10 scale, so that one unit is a factor of ten. As a reminder, the IC20 is the concentration needed for an effect of 20%. A word on the IC80: it is the concentration needed for an effect of 80%. As usually defined, the logD is the decadic logarithm of the distribution of all forms, ionised or not, between an organic phase and buffer at a given pH. Read a high logD as a more lipophilic compound.

pIC50, pKi: −log10 of the molar value. Where “and” joins values, the source holds several entries; their conditions need not be identical. Identical values can stand only once. Like-named read-outs stand apart in the source and are kept apart here.

T1 sequence (Q8I6Z5 whole entry): as above
Procedure for clone DC6: as §1, §2

For the molecule `CC(C)C[C@H](NC(=O)[C@@H](N)CCCCN)C(=O)N[C@@H](CC(C)C)C(O)CN[C@@H](C)C(=O)N[C@@H](CCC(=O)O)C(N)=O` (mixture of isomers) [Compound 29], the “IC50 increase compared to Compound 13a” value on Plasmepsin V (PmV) was 8 fold. Moreover, at Plasmepsin V (PmV), the pKi is 5.98. The pIC50 at Plasmepsin V (PmV) (setting [6]) was 5.71; in series [1], 4.56; in [4] (strain 3D7, parental line), 4.75; in series [5], 4.90; in the series with clone DC6, 4.73. The IC20 in [1] amounted to 25.1 µM; in series [4] (strain 3D7, parental line), 14 µM; in [5], 7.68 µM; in the series on clone DC6, 12.8 µM. Further, the concentration for an effect of 80% (IC80) was found to be 30.1 µM in [1]; 22.7 µM in [4] (strain 3D7, parental line); 20.2 µM in [5]; 27.1 µM in the series with clone DC6. In [2], this molecule gave a logD of -5.99. In series [3], the “effect on HRPII-GFP PExEl-dependent secretion” value is recorded as “impairment of HRPII-GFP PExEl-dependent secretion was observed”. Further, the LD50 growth inhibition in series [4] was ~ 15 μM and 15.2 μM. In the series on HRPII PExEl processing, the “effect on natural processing of HRPII” value is given as “inhibited”.
As to `CC(C)C[C@H](NC(=O)[C@@H](N)CCCNC(=N)N)C(=O)N[C@@H](CC(C)C)C(O)CN[C@@H](C)C(=O)N[C@@H](CCC(=O)O)C(=O)N[C@@H](C)C(N)=O` (mixture of isomers) [Compound 1], at Plasmepsin V (PmV), the pKi was 9.70. Besides, the pIC50 at Plasmepsin V (PmV) (setting [6]) is 9.43; at Plasmepsin V (PmV) (3 μM substrate), 9.44; at Plasmepsin V (PmV) (inhibitor added after the reaction was initiated) it was 9.48; on Plasmepsin V (PmV) (pre-mixing the enzyme with inhibitor), 9.44. The “greater inhibition efficiency relative to WEHI916” value at Plasmepsin V (PmV) (side-by-side comparison) is ~ 100 fold. For the same molecule, the pH-dependent lipophilicity (logD) in series [2] is -4.28. Besides, the LD50 growth inhibition in series [4] is over 200 µM. Also, the “competition of Compound 36 binding to PmV” value on PmV-GFP (50 μM competitor) is “negatively affects the interaction between Compound 36 and PmV”.
For `CC(C)C[C@H](NC(=O)[C@@H](NC(=O)[C@H](CCCNC(=N)N)NS(=O)(=O)Cc1ccccc1)C(C)C)[C@@H](O)CC(=O)NCCc1ccccc1` [WEHI916, reference compound], the negative logarithm of the IC50 (pIC50) on Plasmepsin V (PmV) (setting [6]) is 7.49; in the series with PmV, 7.70 to 7.72.
Consider `CC(C)C[C@H](NC(=O)[C@H](CCCNC(=N)N)NC(=O)CCCNC(=O)CCCNC(=O)CCCC[C@@H]1SC[C@@H]2NC(=O)N[C@@H]21)C(=O)N[C@@H](CC(C)C)C(O)CN[C@@H](C)C(=O)N[C@@H](CCC(N)=O)C(=O)N[C@@H](C)C(=O)O` (stereo partly shown) [Compound 36], for which, at PmV-GFP (DC6 lysate, 50 μM or streptavidin-resin bound), the “interaction with PmV in pull-down / immuno-precipitation” value was “confirmed the interaction between our inhibitor and PmV”.
